Earlier results in article PMC2992174 (Journal of nuclear medicine : official publication, Society …, 2010).
Positions of bridges follow the written chain, without caps; N, C: chain ends. No end group written: not given here.

Experiments:
IPA = conditions: ^111In-labeled peptide, IPA in vivo

Substance	uptake by Candida albicans (Candida albicans)	background activity (IPA) [%ID/g]	target uptake (IPA) [%ID/g]
Fe-TAFC	inefficient	–	–
CGGRLGPFC-NH2 (disulfide 1-9)	–	0.14 ± 0.02	0.37 ± 0.06
